Laboratory results reported in paper PMC2840032, “Discovery of Fragment Molecules That Bind the Human Peroxiredoxin 5 Active Site” (PLoS ONE, 2010).

Tests used:
human PRDX5 [1] = molecular target: T1, human PRDX5 (Homo sapiens, UniProt P30044); assay: NMR screening: STD factor (f STD) of fragments with PRDX5; type: binding; conditions: for f STD: F152 compared with D3; for STD factor (f STD): Figure 2, relative degree of saturation normalized to that of F090
T1 construct: 6xHis (N); made in house; host or cells: E. coli strain M15 (pRep4)
T1 sequence (P30044 53-214): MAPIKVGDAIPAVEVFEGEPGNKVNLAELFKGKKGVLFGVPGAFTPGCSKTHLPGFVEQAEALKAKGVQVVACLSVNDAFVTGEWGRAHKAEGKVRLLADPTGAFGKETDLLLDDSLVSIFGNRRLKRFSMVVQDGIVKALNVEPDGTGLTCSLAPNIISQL
Description: All spectra were acquired at 20°C with a Varian Inova 600 MHz NMR spectrometer, equipped with a standard 5 mm triple-resonance inverse probe with a z-axis field gradient, actively shielded, and with an autosampler robot. The NMR samples were prepared with a robot TECAN Miniprep 60. For 175 fragments, 32 NMR tubes were prepared with 20 µM of the reduced protein and 600 µM fragments. For 25 fragments (6 NMR samples) that were not soluble at 600 µM in water, the final concentration in the NMR tube was set to 200 µM. All samples contained 1 mM DTT. […] Control 1D ^1H spectra preceded all experiments to assess the purity and stability of the fragments. NMR screening was achieved using 1D STD [30] and Waterlogsy experiments. The parameters used were the same as previously described. All NMR spectra were processed with the Varian VnmrJ software.
(§1) KD values were determined by fitting the plot of [L]tot vs. f STD as previously published.

[2] = Solubility in water / in the assay; type: physicochemical; conditions: for solubility in water: for KD measurement by STD titration; for solubility in the assay: thioredoxin peroxidase inhibition assay
Text: We previously designed a small generalist library of 60 fragments and used it to elaborate an inhibitor of the Creatine kinase protein [27], based on the identification of an initial fragment by NMR screening. Here, the library was enlarged and contains 200 fragments that correspond to small commercial compounds with physicochemical properties defined by the rule of three. The 140 newly added fragments were chosen so as to enhance the diversity of the library in terms of size, shape and chemical functionalities. […] Waterlogsy experiments were recorded to detect possible aggregation as LOGSY effects are characteristic of high molecular weight compounds in water. When the molecules were not soluble at 600 µM, solutions were tested at 200 µM. If not soluble, the molecules were rejected from the selection. Then, to optimize the experimental time and to reduce the protein quantity required for the NMR screening experiments, fragments were pulled into mixtures of 3 to 6 molecules with minimum spectral overlap. NMR spectra of the mixtures were recorded after 3 months to confirm the absence of degradation of the compounds.
The compounds of the library were chosen from Aldrich or Acros online catalogs with SHAPES-like criteria [40]–[42] and had to fit the rule of three. Aqueous solubility was checked for all compounds by recording ^1H 1D NMR spectrum and Waterlogsy spectrum, [43]. 110 mM stock solutions of the library compounds were prepared in DMSO-d 6 and conserved at −20°C. ^1H 1D NMR spectrum were recorded to check that no degradation occurs over 3 months. Compounds were mixed by 3 to 6 to decrease the NMR experimental time as well as the protein quantity. Criteria for the compound selection for the mixtures were the absence of overlapping resonances in the 1D NMR spectra. The library contained 200 validated fragments.

human PRDX5 [3] = molecular target: T1, human PRDX5; assay: Thioredoxin peroxidase activity inhibition assay; type: biochemical; conditions: 0–600 µM
Description: Inhibition of thioredoxin peroxidase activity was assayed using thioredoxin peroxidase assay in a 96-well plate reader essentially as described by Kim et al. [48] and Theys et al. [49]. Briefly, the spectrometric assay was performed in a 160 µl reaction mixture containing 500 µM NADPH, 4 µM recombinant S.cerevisiae thioredoxin, 2 µM recombinant S.cervisiae thioredoxin reductase, 0.6 µM human recombinant PRDX5 and increasing concentrations (0 to 6 mM) of fragments (from stock solutions in DMSO) in PBS 0.1M (pH 7.4). The reaction was initiated by adding H2O2 at the final concentration of 100 µM. NADPH oxidation was monitored by following absorbance at 340 nm for 30 min at 37°C. The initial rate of reaction was calculated using the linear portion of the curve and was expressed as the amount of NADPH oxidized per min. The IC50 was calculated with the percentage of remaining thioredoxin peroxidase activity. Measurements were performed in quadruplicates.

human PRDX5 [4] = molecular target: T1, human PRDX5; assay: KD measurements by STD factor variation upon titration; type: binding
Description: as §1

Compound | solubility in water [2] | STD factor (f STD) (human PRDX5 [1]) | further results
Cc1ccc(O)c(O)c1 [D3, 4-methyl-catechol] | – | – | f STD (human PRDX5 [1]): 66%
Oc1ccccc1-c1ccccc1 [F012] | too low | 88 | inhibitory activity on thioredoxin peroxidase activity (human PRDX5 [3]): no inhibitory activity
Oc1cccc2[nH]c3ccccc3c12 [F069] | too low | 42 | –
O=C(c1ccccc1)c1ccc(O)cc1O [F082] | too low | 69 | –
Oc1ccccc1Cc1ccccc1O [F090, bis-(2-hydroxyphenyl)-methan] | – | 100 | solubility in the assay [2]: insufficient solubility; Kd (human PRDX5 [4]; STD titration, reduced PRDX5, read-out: dissociation constant KD): 1200 ± 400 µM; ligand efficiency (human PRDX5 [4]; free energy of binding divided by the number of heavy atoms): 0.42 kcal/mol
Oc1ccc(-c2ccc(O)cc2)cc1 [F093] | too low | 76 | solubility in the assay [2]: insufficient solubility
Oc1ccccc1O [F152, catechol] | – | 32 | f STD (human PRDX5 [1]): 32%
